Data: US8399689B2, “Chrysophaentin antimicrobial compounds that inhibit FtsZ protein” (The United States of America, as represented by the …, priority 2010, dated 2013)
In brackets after ≈: the same amount, converted by molar mass. Entries after “also recorded” stand apart in the source; their conditions may differ.

Legend:
[1] = system: Staphylococcus aureus (SA, ATCC 25923); assay: Agar disk diffusion assay, S. aureus; type: cell-based
Procedure: (§1) Compounds 1-8 were tested for antimicrobial activity against Staphylococcus aureus (SA, ATCC 25923), methicillin-resistant S. aureus (MRSA, ATCC BAA-41), multidrug-resistant S. aureus (MDRSA, ATCC BAA-44), Enterococcus faecium (EF, ATCC 49032), vancomycin-resistant E. Faecium (VRE, ATCC 700221), and Bacillus subtilis (ATCC 49343) using a modified disk diffusion assay and microbroth liquid dilution assays. For disk diffusion assays, agar plates seeded with suspensions of bacteria were prepared by adding 500 μL of a 24 h culture of bacteria to 100 mL of autoclaved Mueller Hinton II agar and cooled to 55° C. Seeded liquid agar (10 mL) was transferred immediately to square Petri dishes and allowed to cool for 1 h. Control drugs used for each microorganism included kanamycin (50 μg) for S. aureus, and nitrofurantoin (25 μg) for MRSA. Following incubation at 37° C. for 18 h, zones of inhibition were measured. MICso values for compounds 1 and 4-8 were determined using a microbroth dilution assay outlined in the Clinical and Laboratory Standards Institute methods for susceptibility tests for bacteria that grow aerobically. Briefly, single bacterial colonies were used to inoculate 4 mL of Trypticase Soy broth (BD) for overnight growth and inoculum for each were diluted to 5×10^5 CFU/mL using the 0.5 McFarland standard. In a 96 well plate (Costar, round bottom), control antibiotics (oxacillin for SA and MRSA, vancomycin for EF and VRE, chloramphenicol for B. subtilis) or natural product inhibitors were added to Muller Hinton II broth (for S. aureus, MRSA, and B. subtilis) or 10% brain heart infusion broth (for E. faecium and VRE) in the first column of the well plates, and serially diluted across the plate, reserving wells for a positive growth control (no treatment). 10 μL of diluted bacteria were added to all wells with the exception of those kept for broth blanks (MHII or brain heart infusion broth only). Plates were incubated at 37° C. overnight and read at absorbance 600 nm on a Molecular Devices plate reader. Growth curves were plotted and ICso values obtained using Kalidagraph software.

[2] = system: Enterococcus faecium (EF, ATCC 49032); assay: Agar disk diffusion assay, E. faecium; type: cell-based
Procedure: as §1

[3] = system: vancomycin-resistant E. Faecium (VRE, ATCC 700221); assay: Agar disk diffusion assay, VREF; type: cell-based, Enterococcus faecium
Procedure: as §1

[4] = system: Staphylococcus aureus (SA, ATCC 25923); assay: Microbroth dilution assay, S. aureus; type: cell-based; settings: concentration at which growth is reduced by 50%; for MIC50 (μg/mL) S. aureus: microbroth dilution
Procedure: as §1

[5] = system: methicillin-resistant S. aureus (MRSA, ATCC BAA-41); assay: Microbroth dilution assay, MRSA; type: cell-based, Staphylococcus aureus; settings: microbroth dilution, concentration at which growth is reduced by 50%
Procedure: as §1

[6] = system: vancomycin-resistant E. Faecium (VRE, ATCC 700221); assay: Microbroth dilution assay, VREF; type: cell-based, Enterococcus faecium; settings: microbroth dilution, concentration at which growth is reduced by 50%
Procedure: as §1

[7] = system: Bacillus subtilis (ATCC 49343); assay: Microbroth dilution assay, B. subtilis; type: cell-based; settings: ATCC49343
Procedure: Compounds 1-8 were tested for antimicrobial activity against Staphylococcus aureus (SA, ATCC 25923), methicillin-resistant S. aureus (MRSA, ATCC BAA-41), multidrug-resistant S. aureus (MDRSA, ATCC BAA-44), Enterococcus faecium (EF, ATCC 49032), vancomycin-resistant E. Faecium (VRE, ATCC 700221), and Bacillus subtilis (ATCC 49343) using a modified disk diffusion assay and microbroth liquid dilution assays. For disk diffusion assays, agar plates seeded with suspensions of bacteria were prepared by adding 500 μL of a 24 h culture of bacteria to 100 mL of autoclaved Mueller Hinton II agar and cooled to 55° C. Seeded liquid agar (10 mL) was transferred immediately to square Petri dishes and allowed to cool for 1 h. Control drugs used for each microorganism included kanamycin (50 μg) for S. aureus, and nitrofurantoin (25 μg) for MRSA. Following incubation at 37° C. for 18 h, zones of inhibition were measured. MICso values for compounds 1 and 4-8 were determined using a microbroth dilution assay outlined in the Clinical and Laboratory Standards Institute methods for susceptibility tests for bacteria that grow aerobically. […] Plates were incubated at 37° C. overnight and read at absorbance 600 nm on a Molecular Devices plate reader. […]

[8] = system: tubulin; assay: Tubulin polymerization assay; type: biochemical; settings: for effect on tubulin polymerization: at 150 μM, 15 times its IC50 for FtsZ
[9] = system: murine leukemia cell line P388; assay: Cytotoxicity, P388; type: cell-based; settings: did not inhibit growth at concentrations as high as
[10] = system: control mammalian cell line BSC-1; assay: Cytotoxicity, BSC-1 control cells; type: cell-based; settings: no cytotoxicity at concentrations as high as
[11] = molecular target: T1, recombinant E. coli FtsZ (Escherichia coli, UniProt P0A9A6); assay: Saturation Transfer Difference (STD) NMR binding to FtsZ
Procedure: Saturation transfer difference (STD) NMR experiments were recorded with the carrier set at −1 or 12 ppm for on-resonance irradiation and at 40 ppm for off-resonance irradiation. […] Selective protein saturation (2 s) was accomplished by using a train of 50 ms Gauss-shaped pulses, each separated by a 1 ms delay, at an experimentally determined optimal power (49 dB on our probe); a T1ρ filter (30 ms) was incorporated to suppress protein resonances. Experiments were recorded using a minimum of 1024 scans and 32K points. On- and off-resonance spectra were processed independently, and subtracted to provide a difference spectrum.
Saturation Transfer Difference (STD) NMR is an NMR technique that provides atomic level detail of the epitope used by a small molecule ligand to bind its macromolecular (protein) receptor. […] Spectra of were recorded at 298 K with the carrier set at −1 or 12 ppm for on-resonance irradiation and 50 ppm for off-resonance irradiation. Selective protein saturation (duration ranging from 1 to 5 s) was accomplished using a train of 50 ms Gauss-shaped pulses, each separated by a 1 ms delay, at an experimentally determined optimal power (49 dB); a T1ρ filter (30 ms) was incorporated to suppress protein resonances. A minimum of 512 scans and 4000 points were used to ensure high quality data with good signal-to-noise. On- and off-resonance spectra were processed independently, and subtracted to provide a difference spectrum. […] STD enhancements were measured by integrating difference spectra where the peaks showing the strongest enhancements relative to the control spectra were used to normalize all non-overlapped peaks in the difference spectra.

[12] = molecular target: GTP binding site of FtsZ (Escherichia coli, UniProt P0A9A6); assay: Competition STD NMR with GTPγS; parameters: species or system E. coli; settings: for mode of binding relative to GTP/GTPγS: GTPγS titration 0.5-3.0 equivalents
[13] = molecular target: T1, recombinant E. coli FtsZ; assay: FtsZ polymerization assay by transmission electron microscopy; settings: 50 μM compound, 6 μM FtsZ, GTP 1 mM
Procedure: Protofilament formation of E. coli FtsZ was assessed by polymerization assays. […] Following an additional 5 minutes incubation period at room temperature, aliquots (5 μL) were adsorbed onto carbon films on lacey carbon supports on 400-mesh copper grids, rinsed with H2O, and exposed to 3% uranyl acetate for 5 minutes for negative staining. Images were acquired with an FEI Morgani transmission electron microscope, operating at 80 kV, and equipped with an AMT Advantage camera at 44,000× magnification.

[14] = Lowest concentrations leading to 8-10 mm zones of inhibition
[15] = 100-fold excess of compound over FtsZ

T1 sequence (P0A9A6 whole entry): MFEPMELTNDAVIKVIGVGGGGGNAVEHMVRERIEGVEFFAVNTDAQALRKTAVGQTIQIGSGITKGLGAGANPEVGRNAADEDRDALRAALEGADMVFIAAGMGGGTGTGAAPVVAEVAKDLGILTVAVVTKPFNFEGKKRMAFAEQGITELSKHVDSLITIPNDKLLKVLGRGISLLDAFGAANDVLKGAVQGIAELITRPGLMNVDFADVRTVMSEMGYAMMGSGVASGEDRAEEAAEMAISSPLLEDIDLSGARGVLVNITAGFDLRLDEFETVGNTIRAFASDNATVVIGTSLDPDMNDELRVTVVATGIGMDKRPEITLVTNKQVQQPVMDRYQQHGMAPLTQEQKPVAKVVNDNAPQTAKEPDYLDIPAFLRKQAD
Sequence of GTP binding site of FtsZ (P0A9A6 whole entry): as above

In the case of `Oc1cc(O)c2c(c1)C/C(Cl)=C\Cc1cc(c(Cl)cc1O)Oc1c(O)cc(cc1O)C/C(Cl)=C\Cc1cc(c(Cl)cc1O)O2` [Compound 1, chrysophaentin 1], the “Agar disk diffusion (μg/disk) S. aureus” value [1, 14] is reported as 2 μg/disk, the zone of inhibition at 2 µg/disc ([1]; Staphylococcus aureus, ATCC25923, at 2 μg/disk) is reported as 10 mm and the zone of inhibition at 2 µg/disc ([2]; Enterococcus faecium, ATCC49032, at 2 μg/disk) is reported as 10 mm. For the same compound, the “Agar disk diffusion (μg/disk) E. faecium” value [2, 14] was 2 μg/disk, the zone of inhibition at 2 µg/disc ([3]; Enterococcus faecium, at 2 μg/disk) was 10 mm and the “Agar disk diffusion (μg/disk) VREF” value [3, 14] was 2 μg/disk. For the same compound, the MIC50 ([4]; Staphylococcus aureus, ATCC25923, microbroth dilution, read-out: MIC50 (μg/mL) S. aureus) was 1.8 ± 0.6 µg/mL (≈ 2.65 µM), the “MIC50 (μg/mL) S. aureus” value [4] was 1.8 ± 0.6 µg/mL (≈ 2.65 µM) and the “MIC50 (μg/mL) S. aureus” value ([4]; listed as chrysophaentin 1) was 1.8 ± 0.6 µg/mL (≈ 2.65 µM). For the same compound, the MIC50 ([5]; Staphylococcus aureus, read-out: MIC50 (μg/mL) MRSA) was 1.5 ± 0.7 µg/mL (≈ 2.21 µM), the “MIC50 (μg/mL) MRSA” value [5] was 1.5 ± 0.7 µg/mL (≈ 2.21 µM) and the “MIC50 (μg/mL) MRSA” value ([5]; listed as Chrysophaentin 1) was 1.8 ± 0.6 µg/mL (≈ 2.65 µM). The “MIC50 (μg/mL) MRSA” value ([5]; listed as chrysophaentin 1) was 1.5 ± 0.7 µg/mL (≈ 2.21 µM), the MIC50 ([6]; Enterococcus faecium, read-out: MIC50 (μg/mL) VREF) was 2.9 ± 0.8 µg/mL (≈ 4.28 µM) and the “MIC50 (μg/mL) VREF” value [6] was 2.8 ± 0.8 µg/mL (≈ 4.13 µM). The “MIC50 (μg/mL) VREF” value ([6]; listed as Chrysophaentin 1) was 2.8 ± 0.8 µg/mL (≈ 4.13 µM), the MIC50 [7] was 7.3 ± 3.7 µg/mL (≈ 10.8 µM) and the “selectivity for FtsZ over tubulin” value [8] was no less than 15 fold. For the same compound, the “effect on tubulin polymerization” value ([8]; listed as chrysophaentin 1) was “no effect; also recorded: does not affect”, the “effect on tubulin polymerization” value ([8]; listed as compound 1) was “no effect” and the “tubulin polymerization velocity v” value ([8]; chrysophaentin 1 at 150 μM, paclitaxel, nocodazole at standardized concentrations) was 49 min⁻¹. The “concentration without growth inhibition, P388” value [9] was greater than 50 µg/mL, the “concentration without cytotoxicity, BSC-1” value [10] was greater than 100 µg/mL and the “STD NMR combined enhancement, overlapped protons H-6′ and H-8” value [11, 15] was roughly 50%. The “STD NMR enhancement, proton H-3” value [11, 15] was 100%, the “STD NMR enhancement, proton H-3′” value [11, 15] was 98% and the “STD NMR enhancement, proton H-12” value [11, 15] was 100%. The “STD NMR enhancement, proton H-14” value [11, 15] was 100%, the “STD NMR enhancement, aromatic protons H-6 and H-6′” value ([11]; as restated with the docked model) was roughly 50% and the “decrease in STD NMR signal intensity of compound on addition of GTPγS” value ([12]; 0.5 equivalents GTPγS (625 μM), 1.25 mM compound, 12.5 μM FtsZ) was roughly 50%. For the same compound, the “mode of binding relative to GTP/GTPγS” value ([12]; listed as chrysophaentin 1) was “in a competitive manner; also recorded: bind competitively”, the “mode of binding relative to GTP/GTPγS” value ([12]; listed as compound 1) was “competitive inhibitor of GTP binding to FtsZ” and the “GTP-dependent FtsZ polymerization and protofilament formation (TEM)” value [13] was “polymerization and protofilament formation were inhibited; also recorded: fully inhibited polymerization and protofilament formation”.
